The test system of test [1] is B16F10 melanoma cells. Put plainly: Melanin production inhibition test using B16. It counts as cell-based. Particulars: 0.1% (w/v), 72 hours, compared with arctigenin, n=3. As to the method: After 24 hours, the culture solution was removed. […] Furthermore, the cells were cultured for 72 hours.
The absorbance thereof was measured at 475 nm.

Test [2] addresses T1, elastase (derived from human leukocyte) (Homo sapiens, UniProt P08246).
T1 construct: elastase (derived from human leukocyte); from tissue; host or cells: human leukocyte
T1 sequence (P08246 30-267): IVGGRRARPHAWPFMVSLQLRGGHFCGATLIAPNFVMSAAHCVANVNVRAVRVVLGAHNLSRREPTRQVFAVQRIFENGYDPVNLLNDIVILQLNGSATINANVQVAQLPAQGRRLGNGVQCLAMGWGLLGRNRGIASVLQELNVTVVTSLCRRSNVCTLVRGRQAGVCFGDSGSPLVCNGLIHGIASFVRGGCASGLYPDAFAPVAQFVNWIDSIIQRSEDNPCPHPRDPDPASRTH
The test is described as follows: Elastase activity measurement. It counts as biochemical. The note with it: compared with arctigenin; 37° C., 2 hours, absorbance at 405 nm. As to the method:
Into a 96-well plate were added 1 μL of each of the samples that was dissolved in DMSO, and 100 μL of elastase (derived from human leukocyte) adjusted to 10 μg/mL. Furthermore, to each of the wells was added to 50 μL of a substrate solution (Suc-(Ala)3-pNa) adjusted to 5 mM. A tris-HCL buffer (pH: 8.0) was used to adjust the final volume thereof to 200 μL. Under a condition at 37° C., the plate was heated for 2 hours. The absorbance of the sample at 405 nm was used as an index of the elastase activity, and the elastase inhibiting activity thereof was calculated in accordance with the following equation: The elastase inhibiting activity (%)=(the absorbance of each of the samples/the absorbance of the control)×100

Test [3] deals with tyrosinase (originating from mushroom). The test is described as follows: Tyrosinase inhibiting activity measurement. It counts as biochemical. The note with it: test concentration 0.01%, compared with arctigenin. The procedure: To each well of a 96-well plate were added 1 μL of a 1 w/w % of each of the samples (test concentration: 0.01%) that was dissolved in DMSO, 20 μL of a 400 U/mL of a tyrosinase solution (originating from mushroom), and 79 μL of distilled water. Thereto were added a reaction solution (0.1 mg/mL L-tyrosine solution (Wako Pure Chemical Industries, Ltd.)) and 100 μL of a 1.3-mM copper sulfate pentahydrate solution (Wako Pure Chemical Industries, Ltd.)/a 60-mM phosphate buffer (pH: 6.0). The resultant was incubated at 37° C. for one hour. Thereafter, the absorbance of the sample was measured at 640 nm. This was used as a measured value (testing sample measured value or control measured value). The tyrosinase inhibiting activity (%)=(the absorbance of each of the samples/the absorbance of the control)×100

Test [4] concerns Endothelin-1 (ET-1) production from human epidermal keratinocytes. Put plainly: Evaluation on production inhibition of endothelin-1 (ET-1) in UVB-irradiated keratinocytes (ELISA). It counts as cell-based. The note with it: UVB 80 mJ/cm^2, supernatant 48 hours after irradiation, relative to agent-free UVB control = 100. The procedure:
Human epidermal keratinocytes were inoculated into 6-well plates to give an amount of 100000 cells per well, and then the cells were cultured for 3 days until the cells turned confluent. After it was verified that the cells turned confluent, their media were each substituted with PBS (−). The individual plates were irradiated with UVB at an irradiation intensity of 80 mJ/cm^2. After the irradiation with the UVB, DMEM in which arctigenin or each of the arctigenin derivatives was dissolved was added to one of the individual plates. After 48 hours from the irradiation, the supernatant (in the one plate) was collected, and the supernatant was centrifuged at 3000 rpm for 5 minutes. Furthermore, the supernatant therein was collected to prepare specimens for ELISA. As a control, a sample was used which was obtained by collecting a supernatant of an agent-free plate irradiated with UVB irradiation. A device used for measuring ET-1 was an Endthelin-1 Human EIA kit (manufactured by Assay Designs, Inc.). […] In each of FIGS. 1 to 3 and FIGS. 6 to 8, one of its vertical axes represents a relative value of each of the specimens when the ET-1 production amount of the control was regarded as 100. In each of FIGS. 1 to 3 and FIGS. 6 to 8, its graph line represents the respective cell survival rates (of the specimens) when the value of the control was regarded as 100%.

As for Arctigenin Propionate [Example 2], the “inhibition of the production of melanin per living cell” value in test [1] was “more significantly inhibited the production of melanin per living cell than arctigenin”. Further, the elastase inhibiting capability entry in test [2] is recorded as “far stronger elastase inhibiting capability than arctigenin”. Regarding `COc1ccc(C[C@H]2COC(=O)[C@@H]2Cc2ccc(OC(C)=O)c(OC)c2)cc1OC` [Example 1, Acetoxyarctigenin], in test [2], the elastase inhibiting capability result is recorded as “far stronger elastase inhibiting capability than arctigenin”. With “Palmitate Arctigenin [Comparative Example 1]”, in test [3], the tyrosinase inhibiting capability entry is recorded as “no tyrosinase inhibiting capability”. In addition, the “inhibition of the production of ET-1” value in test [4] is reported as “does not significantly inhibit the production of ET-1”.
